These results are taken from patent US12679851B2, “Methyl-substituted benzobisoxazole compound and use thereof” (TONGHUA DONGBAO PHARMACEUTICAL CO., LTD., priority 2020, dated 2026).

pEC50, pIC50: −log10 of the molar value. Where only a bound is given, the exact number is not on record here.

Data set [1] can be described thus: Cynomolgus monkey in vivo DMPK study. To be noted: male cynomolgus monkeys, single oral 0.5 mg/kg. The protocol: Male cynomolgus monkeys were used as test animals, and the plasma concentration of the compound was determined after a single oral administration and the pharmacokinetic behavior was evaluated.
Two healthy male cynomolgus monkeys (fasting) were selected as the oral group. Oral vehicle was 20% hydroxypropyl-p-cyclodextrin aqueous solution. After the test compound was mixed with the vehicle, vortexed and sonicated to prepare 0.1 mg/mL approximately clear solution. The oral dosage of cynomolgus monkey was 0.5 mg/kg. After oral administration, whole blood was collected for a certain time to prepare plasma. The drug concentration was analyzed by LC-MS/MS method, and the pharmacokinetic parameters were calculated by Phoenix WinNonlin 6.3.

Data set [2] has as its target T1, CYP2C19 (Homo sapiens, UniProt P33261).
T1 construct: human liver microsomes (HLM) were used as the incubation system; from tissue; host or cells: human liver microsomes
The data set can be described thus: Cytochrome P450 isoenzyme inhibition, human liver microsomes. Type of data set: in vitro ADME. How it is done: (§1) To test the inhibitory effects of the test compounds on the activities of human liver microsomal cytochrome P450 isoenzymes (CYP1A2, CYP2C9, CYP2C19, CYP2D6 and CYP3A4).
(§2) Firstly, the test compound (10.0 mM) was diluted in gradient to prepare a working solution (100× final concentration), and the working solution concentrations were 5.00, 1.50, 0.500, 0.150, 0.0500, 0.0150 and 0.00500 mM respectively. At the same time, the working solution of each positive inhibitor and its specific substrate mixture of P450 isoenzymes (CYP1A2, CYP2C9, CYP2C19, CYP2D6 and CYP3A4) was prepared; the human liver microsomes stored in the refrigerator below −60° C. were thawed on ice. When the human liver microsomes were completely dissolved, then diluted with potassium phosphate buffer (PB) to prepare a working solution with a certain concentration (0.253 mg/mL).
(§3) Firstly, 20.0 μL of substrate mixture was added to the reaction plate (20.0 μL of PB was added to the blank well), then 158 μL of human liver microsome working solution was added to the reaction plate, and the reaction plate was placed on ice for later use. At this time, 2.00 μL of test compound (N=1) and specific inhibitor (N=2) of each concentration were added to the corresponding well, and the group without inhibitor (test compound or positive inhibitor) was added with the corresponding organic solvent as a of control sample (control sample of test compound was dimethyl sulfoxide:methanol=1:1, positive control samples were all dimethyl sulfoxide:methanol=1:9). After pre-incubation in 37° C. water bath for 10 minutes, 20.0 μL of a coenzyme factor (NADPH) solution was added to the reaction plate and incubated in 37° C. water bath for 10 minutes. Then 400 μL of pre-cooled acetonitrile solution (internal standard containing 200 ng/mL tolbutamide and labetalol) was added to stop the reaction; the reaction plate was placed in a shaker and shaken for 10 min to mix evenly. Then the reaction plate was centrifuged at 4° C. and 4000 rpm for 20 min. 200 μL of supernatant was taken and added to 100 μL of water for sample dilution. Finally, the plate was sealed, shaken for 10 minutes to mix evenly for LC/MS/MS detection.
For orientation: Liver microsomes are a subcellular fraction often used to study metabolism.

A further data set deals with T2, CYP3A4 (Homo sapiens, UniProt P08684).
T2 construct: from tissue; host or cells: human liver microsomes
T2 sequence (P08684 whole entry): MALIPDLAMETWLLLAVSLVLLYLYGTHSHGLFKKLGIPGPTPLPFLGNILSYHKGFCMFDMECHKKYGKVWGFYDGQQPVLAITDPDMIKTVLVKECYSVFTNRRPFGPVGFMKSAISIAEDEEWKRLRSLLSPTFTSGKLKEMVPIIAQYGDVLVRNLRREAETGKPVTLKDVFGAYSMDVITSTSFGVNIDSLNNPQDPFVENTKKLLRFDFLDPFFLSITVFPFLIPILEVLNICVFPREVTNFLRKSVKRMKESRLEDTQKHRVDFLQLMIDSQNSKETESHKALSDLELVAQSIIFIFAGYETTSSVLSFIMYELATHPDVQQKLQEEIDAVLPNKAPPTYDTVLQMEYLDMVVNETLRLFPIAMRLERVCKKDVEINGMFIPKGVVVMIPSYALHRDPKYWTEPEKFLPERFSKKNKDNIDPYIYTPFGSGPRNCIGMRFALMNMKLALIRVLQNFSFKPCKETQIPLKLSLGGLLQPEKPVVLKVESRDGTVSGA
The data set is described as above. Type of data set: in vitro ADME. To be noted: CYP3A4-M. The protocol:
as §1, §2, §3

Another data set has as its target T3, CYP1A2 (Homo sapiens, UniProt P05177).
T3 construct: from tissue; host or cells: human liver microsomes
T3 sequence (P05177 1-516): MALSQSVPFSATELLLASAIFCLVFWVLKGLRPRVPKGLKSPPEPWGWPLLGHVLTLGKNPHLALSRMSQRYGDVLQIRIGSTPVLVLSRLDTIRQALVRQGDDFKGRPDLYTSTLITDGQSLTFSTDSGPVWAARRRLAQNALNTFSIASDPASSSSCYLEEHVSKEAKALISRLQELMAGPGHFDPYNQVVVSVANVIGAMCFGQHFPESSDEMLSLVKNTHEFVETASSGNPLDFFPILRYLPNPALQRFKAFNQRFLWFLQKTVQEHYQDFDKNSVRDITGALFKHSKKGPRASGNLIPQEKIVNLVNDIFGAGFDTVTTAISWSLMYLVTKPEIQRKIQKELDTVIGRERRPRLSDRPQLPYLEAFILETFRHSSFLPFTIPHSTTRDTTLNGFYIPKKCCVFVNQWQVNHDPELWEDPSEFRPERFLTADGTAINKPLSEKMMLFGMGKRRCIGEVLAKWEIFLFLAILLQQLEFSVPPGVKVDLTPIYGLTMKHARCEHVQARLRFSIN
The data set is described as above. Type of data set: in vitro ADME. How it is done:
as §1, §2, §3

A further data set has as its target T4, CYP2D6 (Homo sapiens, UniProt P10635).
T4 construct: from tissue; host or cells: human liver microsomes
Described as above. Type of data set: in vitro ADME. How it is done:
as §1, §2, §3

The next data set deals with T5, CYP2C9 (Homo sapiens, UniProt P11712).
T5 construct: from tissue; host or cells: human liver microsomes
T5 sequence (P11712 whole entry): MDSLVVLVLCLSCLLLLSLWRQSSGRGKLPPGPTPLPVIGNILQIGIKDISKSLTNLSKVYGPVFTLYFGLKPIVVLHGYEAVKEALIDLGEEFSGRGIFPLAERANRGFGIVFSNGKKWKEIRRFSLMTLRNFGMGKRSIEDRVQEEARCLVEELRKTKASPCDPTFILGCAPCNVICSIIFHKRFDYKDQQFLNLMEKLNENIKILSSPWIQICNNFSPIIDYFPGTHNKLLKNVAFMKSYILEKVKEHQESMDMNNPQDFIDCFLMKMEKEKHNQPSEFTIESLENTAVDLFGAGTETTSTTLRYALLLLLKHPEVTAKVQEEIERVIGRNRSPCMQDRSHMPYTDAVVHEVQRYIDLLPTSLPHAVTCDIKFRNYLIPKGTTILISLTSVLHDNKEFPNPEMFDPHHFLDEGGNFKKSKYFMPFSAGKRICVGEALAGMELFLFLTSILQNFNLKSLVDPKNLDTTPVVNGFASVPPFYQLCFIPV
Described as above. Type of data set: in vitro ADME. How it is done:
as §1, §2, §3

The target of another data set is GLP-1 receptor (Homo sapiens, UniProt P43220). The data set can be described thus: Cell activity test in vitro (cAMP detection, GLP-1 HEK293 cells). The class given is cell-based. To be noted: HEK293 host cell. The protocol:
The cells were constructed by Wuxi New Drug Development Co., Ltd. Shanghai.
The compound was formulated with DMSO to a working concentration of 30 μM. In this test, the usage amount of each sample was 5 μL.
The pH was adjusted to 7.4 and the volume was fixed to 25 mL with HBSS 1×.
Preparation of cAMP detection reagent: 250 μL of cAMP-D2 and 250 μL of anti-cAMP cryptate reagent were added to 4 mL of lysis buffer, and mixed gently.
The test compound was diluted 3 times by 10 points with a starting concentration of 30 μM, and the dilutions were completed by Bravo.
The reference compound exenatide was diluted 3 times by 10 points with a starting concentration of 500 nM, and the dilutions were completed by Bravo.
• 1) 100 nL of compound was transferred to OptiPlate-384 plate using Echo. • 2) OptiPlate-384 plate was centrifuged at 1000 rpm for 5 seconds. c) Preparation of cell suspension • 1) A GLP-1 cell cryopreservation tube was quickly thawed in 37° C. warm water. • 2) The cell suspension was transferred to a Transfer 15 mL of centrifuge tube and gently rinsed with 10 mL of HBSS. • 3) The centrifuge tube was centrifuged at 1000 rpm at room temperature for 1 minute. • 4) The supernatant was discarded. • 5) The cells at the bottom were gently dispersed and gently rinsed with 10 mL of HBSS, then the cells were centrifuged for sedimentation, and finally the cells were re-suspended in experimental buffer. • 6) Cell density and activity were measured by using Vi-cell. • 7) The concentration of GLP-1 cells was diluted to 2.0*10^5/mL with the experimental buffer. • 8) […] of diluted cell suspension was transferred into OptiPlate-384 plate. • 9) The cells were incubated at room temperature for 30 minutes. d) Addition of detection reagents: • 1) 10 μL of 800 nM gradient diluted cAMP standard was added to the empty well of OptiPlate-384 plate. • 2) 10 μL of cAMP detection reagent was added. • 3) OptiPlate-384 plate was covered with TopSeal-A film and incubated for 60 min at room temperature.
The TopSeal-A was removed, and the EnVision reading was performed.

For data set [3], the target named is T1, CYP2C19. Briefly: Cytochrome P450 isoenzyme time-dependent inhibition, human liver microsomes. The class given is in vitro ADME. The protocol: To test the time-dependent inhibitory effect of the test compounds on the activity of human liver microsomal cytochrome P450 isoenzyme CYP2C19.
The experiment was divided into two groups. In the first group, human liver microsomes (HLM) were used as the incubation system, and a series of concentrations of test samples were added to the incubation system, and then coenzyme factor (NADPH) solution was added, and pre-incubated at 37° C. for 30 minutes. After pre-incubation, the probe substrate solution was added, and after incubation for a certain time, the reaction was terminated; the amount of probe substrate metabolites produced in the incubation solution was measured, and the enzyme activity was calculated. The second group of reactions was to use human liver microsomes (HLM) as the incubation system, and a series of concentrations of test samples were added to the incubation system, and then potassium phosphate buffer was added, and pre-incubated at 37° C. for 30 minutes. After pre-incubation, a mixed solution of NADPH and probe substrate was added. After incubation for a certain time, the reaction was terminated, the amount of probe substrate metabolites produced in the incubation solution was measured, and the enzyme activity was calculated.
Firstly, the test compound (10.0 mM) was diluted in gradient to prepare a working solution (100× final concentration), and the working solution concentrations were 5.00, 1.65, 0.500, 0.165, 0.0500, 0.0165 and 0.00500 mM respectively. At the same time, the positive inhibitor of P450 isoenzyme CYP2C19, probe substrate and NADPH working solution were prepared; the human liver microsomes stored in the refrigerator below −60° C. were thawed on ice. When the human liver microsomes were completely dissolved, then diluted with potassium phosphate buffer (PB) to prepare a working solution with a certain concentration (0.169 mg/mL).
Then 147.5 μL of human liver microsome working solution was added to the reaction plate, and the reaction plate was placed on ice for use. […]

T1 sequence (P33261 whole entry): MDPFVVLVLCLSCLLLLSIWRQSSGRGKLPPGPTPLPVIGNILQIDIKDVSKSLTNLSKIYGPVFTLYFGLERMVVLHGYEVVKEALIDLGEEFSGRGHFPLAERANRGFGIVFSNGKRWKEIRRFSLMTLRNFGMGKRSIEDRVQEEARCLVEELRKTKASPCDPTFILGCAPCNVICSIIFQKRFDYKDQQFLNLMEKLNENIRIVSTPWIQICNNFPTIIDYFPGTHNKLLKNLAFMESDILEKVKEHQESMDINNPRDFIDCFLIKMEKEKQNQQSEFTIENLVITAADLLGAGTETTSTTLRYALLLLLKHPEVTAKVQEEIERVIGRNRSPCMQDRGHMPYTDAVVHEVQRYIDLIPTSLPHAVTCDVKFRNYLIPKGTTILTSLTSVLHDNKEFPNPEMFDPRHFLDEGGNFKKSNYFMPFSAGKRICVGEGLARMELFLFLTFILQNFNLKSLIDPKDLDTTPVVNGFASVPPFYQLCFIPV
Sequence of GLP-1 receptor (P43220 24-463): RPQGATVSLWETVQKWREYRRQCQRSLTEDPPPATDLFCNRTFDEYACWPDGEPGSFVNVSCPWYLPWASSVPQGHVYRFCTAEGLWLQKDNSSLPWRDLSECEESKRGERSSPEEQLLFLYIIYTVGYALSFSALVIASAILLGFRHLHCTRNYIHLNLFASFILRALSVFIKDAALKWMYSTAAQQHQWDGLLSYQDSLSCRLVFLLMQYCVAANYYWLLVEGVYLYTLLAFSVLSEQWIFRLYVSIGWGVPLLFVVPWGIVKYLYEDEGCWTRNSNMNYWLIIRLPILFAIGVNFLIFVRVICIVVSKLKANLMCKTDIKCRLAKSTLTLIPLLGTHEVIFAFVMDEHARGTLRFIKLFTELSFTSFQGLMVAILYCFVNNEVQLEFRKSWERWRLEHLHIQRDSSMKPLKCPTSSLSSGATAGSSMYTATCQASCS
T4 sequence (P10635 whole entry): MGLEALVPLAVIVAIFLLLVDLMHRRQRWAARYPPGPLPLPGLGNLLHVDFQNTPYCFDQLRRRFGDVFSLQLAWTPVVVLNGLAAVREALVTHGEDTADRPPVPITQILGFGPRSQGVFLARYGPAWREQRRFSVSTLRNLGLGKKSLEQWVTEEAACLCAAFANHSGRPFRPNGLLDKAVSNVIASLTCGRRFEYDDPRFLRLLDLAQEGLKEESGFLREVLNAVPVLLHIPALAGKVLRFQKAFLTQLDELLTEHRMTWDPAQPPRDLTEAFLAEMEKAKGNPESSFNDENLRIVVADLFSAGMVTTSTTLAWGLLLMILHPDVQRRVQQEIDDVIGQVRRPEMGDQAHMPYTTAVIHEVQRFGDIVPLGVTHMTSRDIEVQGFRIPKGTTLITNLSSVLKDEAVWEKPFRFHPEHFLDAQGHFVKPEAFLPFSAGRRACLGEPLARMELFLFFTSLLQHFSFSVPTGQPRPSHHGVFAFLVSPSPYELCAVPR

Take `CC1(c2ccc(Cl)cc2F)Oc2cccc(C3CCN(Cc4nc5sc(C(=O)O)cc5n4C[C@@H]4CCO4)CC3)c2O1` (single isomer, unassigned) [Compound 004]: the half-life in data set [1] (cynomolgus monkey, plasma) is 236 min. For the same compound, in data set [1] (cynomolgus monkey, plasma), the Cmax came to 132 nM. In addition, the “Oral DNAUC” value in data set [1] (DNAUC = AUCPO/Dose) is 1056 nM · h/mpk. For the same compound, the negative logarithm of the IC50 (pIC50) is 4.63 against CYP2C19 [2]; 4.39 against CYP3A4; 4.36 against CYP1A2; below 4.30 on CYP2D6; 4.50 against CYP2C9. Moreover, the pEC50 on GLP-1 receptor is 9.70.
As for `CC1(c2ccc(Cl)cc2F)Oc2cccc(N3CCN(Cc4nc5sc(C(=O)O)cc5n4CC4CCO4)CC3)c2O1` (single isomer, unassigned) [Compound 005A], the negative-log IC50 (pIC50) against CYP2C19 [2] is below 4.30; against CYP3A4 it was below 4.30; on CYP1A2, below 4.30; on CYP2D6, below 4.30; on CYP2C9 it was 4.51; on CYP2C19 [3] (30 min pre-incubation with NADPH) it was below 4.30. On CYP2C19 [3] (30 min pre-incubation without NADPH), this compound had a negative-log IC50 (pIC50) of 4.35. Further, the pEC50 on GLP-1 receptor is 9.82. At CYP2C19 [3], the “Time-dependent inhibition (Yes or No)” value is reported as “No”.
As to `CC1(c2ccc(Cl)cc2F)Oc2cccc(C3CCN(Cc4nc5sc(C(=O)O)c(F)c5n4C[C@@H]4CCO4)CC3)c2O1` (single isomer, unassigned) [Compound 006], the pIC50 against CYP2C19 [2] was below 4.30; at CYP3A4, 4.31; at CYP1A2, 4.41; at CYP2D6 it was below 4.30; on CYP2C9, 4.67. Further, at GLP-1 receptor, the negative logarithm of the EC50 (pEC50) was 9.41.
In turn, `C[C@]1(c2ccc(C#N)cc2F)Oc2cccc(C3=CCN(Cc4nc5sc(C(=O)O)cc5n4C[C@@H]4CCO4)CC3)c2O1` [Compound 011A] showed a negative-log EC50 (pEC50) on GLP-1 receptor of 9.48.
With `C[C@]1(c2ccc(C#N)cc2F)Oc2cccc(C3=CCN(Cc4nc5cc(C(=O)O)sc5n4C[C@@H]4CCO4)CC3)c2O1` [Compound 011B], the negative-log EC50 (pEC50) on GLP-1 receptor is 8.82.

The term half-life denotes how long it takes for the measured level to halve. As usually defined, the Cmax is the maximum level reached in the sampled fluid or tissue. As a reminder, the pIC50 is −log10 of the IC50, conventionally taken in molar units. Broadly, the pEC50 is the EC50 on a negative log10 scale, so that one unit is a factor of ten.
